{"source": "ChEMBL document CHEMBL1201862", "about": "“PubChem BioAssay data set” (2004)", "assay_in_all_cases": "NCI anticancer screen, dose series, 48 h", "key": {"HL-60": {"test_system": "HL-60"}, "SNB-75": {"test_system": "SNB-75"}, "SW-620": {"test_system": "SW-620"}, "IGROV-1": {"test_system": "IGROV-1"}, "SF-268": {"test_system": "SF-268"}, "OVCAR-5": {"test_system": "OVCAR-5"}, "NCI/ADR-RES": {"test_system": "NCI/ADR-RES"}, "HT-29": {"test_system": "HT-29"}, "COLO 205": {"test_system": "COLO 205"}, "RXF 393": {"test_system": "RXF 393"}, "U-251": {"test_system": "U-251"}, "NCI-H23": {"test_system": "NCI-H23"}, "HCT-116": {"test_system": "HCT-116"}, "RPMI-8226": {"test_system": "RPMI-8226"}, "MDA-N": {"test_system": "MDA-N"}, "SK-OV-3": {"test_system": "SK-OV-3"}, "EKVX": {"test_system": "EKVX"}, "SK-MEL-2": {"test_system": "SK-MEL-2"}, "OVCAR-8": {"test_system": "OVCAR-8"}, "SK-MEL-5": {"test_system": "SK-MEL-5"}, "786-0": {"test_system": "786-0"}, "M14": {"test_system": "M14"}, "K562": {"test_system": "K562"}, "ACHN": {"test_system": "ACHN"}, "SNB-19": {"test_system": "SNB-19"}, "HCC 2998": {"test_system": "HCC 2998"}, "A549": {"test_system": "A549"}, "MDA-MB-435": {"test_system": "MDA-MB-435"}, "SF-539": {"test_system": "SF-539"}, "CAKI-1": {"test_system": "CAKI-1"}, "SN12C": {"test_system": "SN12C"}, "A498": {"test_system": "A498"}, "BT-549": {"test_system": "BT-549"}, "LOX IMVI": {"test_system": "LOX IMVI"}, "SR": {"test_system": "SR"}, "HCT-15": {"test_system": "HCT-15"}, "TK-10": {"test_system": "TK-10"}, "CCRF-CEM": {"test_system": "CCRF-CEM"}, "UO-31": {"test_system": "UO-31"}, "MOLT-4": {"test_system": "MOLT-4"}, "Hs-578T": {"test_system": "Hs-578T"}, "T47D": {"test_system": "T47D"}, "SK-MEL-28": {"test_system": "SK-MEL-28"}, "UACC-257": {"test_system": "UACC-257"}, "PC-3": {"test_system": "PC-3"}, "NCI-H226": {"test_system": "NCI-H226"}, "DU-145": {"test_system": "DU-145"}, "HOP-62": {"test_system": "HOP-62"}, "SF-295": {"test_system": "SF-295"}, "NCI-H522": {"test_system": "NCI-H522"}, "MDA-MB-231": {"test_system": "MDA-MB-231"}, "OVCAR-3": {"test_system": "OVCAR-3"}, "MCF7": {"test_system": "MCF7"}, "Malme-3M": {"test_system": "Malme-3M"}, "NCI-H460": {"test_system": "NCI-H460"}, "UACC-62": {"test_system": "UACC-62"}, "OVCAR-4": {"test_system": "OVCAR-4"}, "KM12": {"test_system": "KM12"}}, "note": "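Exposure lasted 48 hours, with cells grown in 96-well plates and compounds tested at five concentrations. GI50 marks 50% less growth.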 Calls of active or inactive are those of the source. Cut-off read from the data, not from the text of the source: active = GI50 up to about 1.1 µM and inactive = higher."}
{"smiles": "O=C(O)CSC(NC(=O)C(C(F)(F)F)C(F)(F)F)(C(F)(F)F)C(F)(F)F", "values": [{"measurement": "GI50", "setting": "HL-60", "value": "> 100 µM (inactive)"}, {"measurement": "GI50", "setting": "SNB-75", "value": "> 100 µM (inactive)"}, {"measurement": "GI50", "setting": "SW-620", "value": "> 100 µM (inactive)"}, {"measurement": "GI50", "setting": "IGROV-1", "value": "> 100 µM (inactive)"}, {"measurement": "GI50", "setting": "SF-268", "value": "> 100 µM (inactive)"}, {"measurement": "GI50", "setting": "OVCAR-5", "value": "> 100 µM (inactive)"}, {"measurement": "GI50", "setting": "NCI/ADR-RES", "value": "> 100 µM (inactive)"}, {"measurement": "GI50", "setting": "HT-29", "value": "> 100 µM (inactive)"}, {"measurement": "GI50", "setting": "COLO 205", "value": "> 100 µM (inactive)"}, {"measurement": "GI50", "setting": "RXF 393", "value": "28.4 µM (inactive)"}, {"measurement": "GI50", "setting": "U-251", "value": "> 100 µM (inactive)"}, {"measurement": "GI50", "setting": "NCI-H23", "value": "> 100 µM (inactive)"}, {"measurement": "GI50", "setting": "HCT-116", "value": "> 100 µM (inactive)"}, {"measurement": "GI50", "setting": "RPMI-8226", "value": "> 100 µM (inactive)"}, {"measurement": "GI50", "setting": "MDA-N", "value": "> 100 µM (inactive)"}, {"measurement": "GI50", "setting": "SK-OV-3", "value": "> 100 µM (inactive)"}, {"measurement": "GI50", "setting": "EKVX", "value": "> 100 µM (inactive)"}, {"measurement": "GI50", "setting": "SK-MEL-2", "value": "> 100 µM (inactive)"}, {"measurement": "GI50", "setting": "OVCAR-8", "value": "23.2 µM (inactive)"}, {"measurement": "GI50", "setting": "SK-MEL-5", "value": "> 100 µM (inactive)"}, {"measurement": "GI50", "setting": "786-0", "value": "> 100 µM (inactive)"}, {"measurement": "GI50", "setting": "M14", "value": "> 100 µM (inactive)"}, {"measurement": "GI50", "setting": "K562", "value": "> 100 µM (inactive)"}, {"measurement": "GI50", "setting": "ACHN", "value": "> 100 µM (inactive)"}, {"measurement": "GI50", "setting": "SNB-19", "value": "> 100 µM (inactive)"}, {"measurement": "GI50", "setting": "HCC 2998", "value": "> 100 µM (inactive)"}, {"measurement": "GI50", "setting": "A549", "value": "> 100 µM (inactive)"}, {"measurement": "GI50", "setting": "MDA-MB-435", "value": "> 100 µM (inactive)"}, {"measurement": "GI50", "setting": "SF-539", "value": "> 100 µM (inactive)"}, {"measurement": "GI50", "setting": "CAKI-1", "value": "1.38 µM (inactive)"}, {"measurement": "GI50", "setting": "SN12C", "value": "> 100 µM (inactive)"}, {"measurement": "GI50", "setting": "A498", "value": "71 µM (inactive)"}, {"measurement": "GI50", "setting": "BT-549", "value": "> 100 µM (inactive)"}, {"measurement": "GI50", "setting": "LOX IMVI", "value": "> 100 µM (inactive)"}, {"measurement": "GI50", "setting": "SR", "value": "> 100 µM (inactive)"}, {"measurement": "GI50", "setting": "HCT-15", "value": "> 100", "unit": "µM"}, {"measurement": "GI50", "setting": "TK-10", "value": "> 100 µM (inactive)"}, {"measurement": "GI50", "setting": "CCRF-CEM", "value": "> 100 µM (inactive)"}, {"measurement": "GI50", "setting": "UO-31", "value": "> 100 µM (inactive)"}, {"measurement": "GI50", "setting": "MOLT-4", "value": "> 100 µM (inactive)"}, {"measurement": "GI50", "setting": "Hs-578T", "value": "> 100 µM (inactive)"}, {"measurement": "GI50", "setting": "T47D", "value": "> 100 µM (inactive)"}, {"measurement": "GI50", "setting": "SK-MEL-28", "value": "> 100 µM (inactive)"}, {"measurement": "GI50", "setting": "UACC-257", "value": "> 100 µM (inactive)"}, {"measurement": "GI50", "setting": "PC-3", "value": "> 100 µM (inactive)"}]}
{"smiles": "O=c1c(Cl)cc2nc3ccccc3sc-2c1Cl", "values": [{"measurement": "GI50", "setting": "NCI-H226", "value": "16.5 µM (inactive)"}, {"measurement": "GI50", "setting": "HL-60", "value": "10.6 µM (inactive)"}, {"measurement": "GI50", "setting": "SNB-75", "value": "16.2 µM (inactive)"}, {"measurement": "GI50", "setting": "SW-620", "value": "12.5 µM (inactive)"}, {"measurement": "GI50", "setting": "IGROV-1", "value": "13.6 µM (inactive)"}, {"measurement": "GI50", "setting": "SF-268", "value": "14.9 µM (inactive)"}, {"measurement": "GI50", "setting": "OVCAR-5", "value": "24.7 µM (inactive)"}, {"measurement": "GI50", "setting": "NCI/ADR-RES", "value": "21.5 µM (inactive)"}, {"measurement": "GI50", "setting": "HT-29", "value": "23.2 µM (inactive)"}, {"measurement": "GI50", "setting": "COLO 205", "value": "18.5 µM (inactive)"}, {"measurement": "GI50", "setting": "DU-145", "value": "12.9 µM (inactive)"}, {"measurement": "GI50", "setting": "RXF 393", "value": "18.5 µM (inactive)"}, {"measurement": "GI50", "setting": "HOP-62", "value": "26.1 µM (inactive)"}, {"measurement": "GI50", "setting": "U-251", "value": "17.6 µM (inactive)"}, {"measurement": "GI50", "setting": "NCI-H23", "value": "11 µM (inactive)"}, {"measurement": "GI50", "setting": "HCT-116", "value": "16.2 µM (inactive)"}, {"measurement": "GI50", "setting": "RPMI-8226", "value": "4.25 µM (inactive)"}, {"measurement": "GI50", "setting": "SF-295", "value": "16.9 µM (inactive)"}, {"measurement": "GI50", "setting": "SK-OV-3", "value": "21 µM (inactive)"}, {"measurement": "GI50", "setting": "EKVX", "value": "3.22 µM (inactive)"}, {"measurement": "GI50", "setting": "NCI-H522", "value": "12.4 µM (inactive)"}, {"measurement": "GI50", "setting": "SK-MEL-2", "value": "13.7 µM (inactive)"}, {"measurement": "GI50", "setting": "MDA-MB-231", "value": "5.78 µM (inactive)"}, {"measurement": "GI50", "setting": "OVCAR-3", "value": "1.98 µM (inactive)"}, {"measurement": "GI50", "setting": "SK-MEL-5", "value": "2.92 µM (inactive)"}, {"measurement": "GI50", "setting": "MCF7", "value": "14.4 µM (inactive)"}, {"measurement": "GI50", "setting": "786-0", "value": "21.2 µM (inactive)"}, {"measurement": "GI50", "setting": "M14", "value": "11.7 µM (inactive)"}, {"measurement": "GI50", "setting": "Malme-3M", "value": "10 µM (inactive)"}, {"measurement": "GI50", "setting": "K562", "value": "6.85 µM (inactive)"}, {"measurement": "GI50", "setting": "ACHN", "value": "15.9 µM (inactive)"}, {"measurement": "GI50", "setting": "SNB-19", "value": "17 µM (inactive)"}, {"measurement": "GI50", "setting": "HCC 2998", "value": "14.1 µM (inactive)"}, {"measurement": "GI50", "setting": "A549", "value": "18.7 µM (inactive)"}, {"measurement": "GI50", "setting": "MDA-MB-435", "value": "2.82 µM (inactive)"}, {"measurement": "GI50", "setting": "SF-539", "value": "16.7 µM (inactive)"}, {"measurement": "GI50", "setting": "CAKI-1", "value": "22.1 µM (inactive)"}, {"measurement": "GI50", "setting": "SN12C", "value": "17 µM (inactive)"}, {"measurement": "GI50", "setting": "A498", "value": "33.9 µM (inactive)"}, {"measurement": "GI50", "setting": "NCI-H460", "value": "18 µM (inactive)"}, {"measurement": "GI50", "setting": "BT-549", "value": "11.7 µM (inactive)"}, {"measurement": "GI50", "setting": "LOX IMVI", "value": "12 µM (inactive)"}, {"measurement": "GI50", "setting": "SR", "value": "4.57 µM (inactive)"}, {"measurement": "GI50", "setting": "HCT-15", "value": 14.7, "unit": "µM"}, {"measurement": "GI50", "setting": "TK-10", "value": "17.9 µM (inactive)"}, {"measurement": "GI50", "setting": "UACC-62", "value": "11.5 µM (inactive)"}, {"measurement": "GI50", "setting": "CCRF-CEM", "value": "4.67 µM (inactive)"}, {"measurement": "GI50", "setting": "UO-31", "value": "15.3 µM (inactive)"}, {"measurement": "GI50", "setting": "MOLT-4", "value": "3.61 µM (inactive)"}, {"measurement": "GI50", "setting": "Hs-578T", "value": "22 µM (inactive)"}, {"measurement": "GI50", "setting": "T47D", "value": "5 µM (inactive)"}, {"measurement": "GI50", "setting": "SK-MEL-28", "value": "18.1 µM (inactive)"}, {"measurement": "GI50", "setting": "UACC-257", "value": "2.75 µM (inactive)"}, {"measurement": "GI50", "setting": "OVCAR-4", "value": "13.2 µM (inactive)"}, {"measurement": "GI50", "setting": "KM12", "value": "17.6 µM (inactive)"}]}
